Measured values published in ChEMBL document CHEMBL4414670 (J Nat Prod, 2019).
Calls of active or inactive are those of the source. The rule behind the calls is not given here.

Columns and labels:
[1] = target: T1, Receptor-type tyrosine-protein phosphatase epsilon (Homo sapiens, UniProt P23469); assay: Inhibition of PTPep (unknown origin) using DiFMUP as substrate incubated for 30 mins followed by substrate addition at pH 6.5 by standard phosphatase assay based fluorescence analysis
[2] = target: T1, Receptor-type tyrosine-protein phosphatase epsilon; assay: Inhibition of PTPep (unknown origin) using DiFMUP as substrate at 100 uM incubated for 30 mins followed by substrate addition at pH 6.5 by standard phosphatase assay based fluorescence analysis
[3] = target: T2, Tyrosine-protein phosphatase non-receptor type 7 (Homo sapiens, UniProt P35236); assay: Inhibition of HePTP (unknown origin) using DiFMUP as substrate incubated for 30 mins followed by substrate addition at pH 6.5 by standard phosphatase assay based fluorescence analysis
T2 sequence (P35236 whole entry): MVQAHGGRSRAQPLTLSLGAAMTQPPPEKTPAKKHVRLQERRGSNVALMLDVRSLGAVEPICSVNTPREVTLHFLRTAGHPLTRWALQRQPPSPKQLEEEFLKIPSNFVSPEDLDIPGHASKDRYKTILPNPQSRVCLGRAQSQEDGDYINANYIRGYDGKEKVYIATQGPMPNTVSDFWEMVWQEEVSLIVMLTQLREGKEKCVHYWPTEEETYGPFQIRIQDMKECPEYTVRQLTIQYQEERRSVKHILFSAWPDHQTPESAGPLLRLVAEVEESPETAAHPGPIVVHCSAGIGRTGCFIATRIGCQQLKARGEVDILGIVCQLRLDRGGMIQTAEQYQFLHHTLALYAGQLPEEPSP

[4] = target: T3, Tyrosine-protein phosphatase non-receptor type 2 (Homo sapiens) (UniProt P17706); assay: Inhibition of TCPTP (unknown origin) using DiFMUP as substrate at 100 uM incubated for 30 mins followed by substrate addition at pH 6.5 by standard phosphatase assay based fluorescence analysis
T3 sequence (whole entry): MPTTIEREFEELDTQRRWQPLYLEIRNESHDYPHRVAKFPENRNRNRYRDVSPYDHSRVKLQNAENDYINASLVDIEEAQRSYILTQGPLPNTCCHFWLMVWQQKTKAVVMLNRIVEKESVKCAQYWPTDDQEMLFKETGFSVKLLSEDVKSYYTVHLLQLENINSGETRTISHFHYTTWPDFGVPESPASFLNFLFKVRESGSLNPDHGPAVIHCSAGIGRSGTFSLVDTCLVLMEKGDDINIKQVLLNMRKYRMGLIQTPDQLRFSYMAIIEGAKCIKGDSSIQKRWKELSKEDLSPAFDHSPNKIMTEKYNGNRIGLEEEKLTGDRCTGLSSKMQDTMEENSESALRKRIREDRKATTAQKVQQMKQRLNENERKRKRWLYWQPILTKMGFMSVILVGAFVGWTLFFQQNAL

[5] = target: T4, Tyrosine-protein phosphatase non-receptor type 2 (Homo sapiens, UniProt P17706); assay: Inhibition of TCPTP (unknown origin) using DiFMUP as substrate incubated for 30 mins followed by substrate addition at pH 6.5 by standard phosphatase assay based fluorescence analysis
T4 sequence (P17706 whole entry): T3 sequence (whole entry)

[6] = target: T5, Receptor-type tyrosine-protein phosphatase C (Homo sapiens) (UniProt P08575); assay: Inhibition of CD45 (unknown origin) using DiFMUP as substrate at 100 uM incubated for 30 mins followed by substrate addition at pH 6.5 by standard phosphatase assay based fluorescence analysis
T5 sequence (whole entry): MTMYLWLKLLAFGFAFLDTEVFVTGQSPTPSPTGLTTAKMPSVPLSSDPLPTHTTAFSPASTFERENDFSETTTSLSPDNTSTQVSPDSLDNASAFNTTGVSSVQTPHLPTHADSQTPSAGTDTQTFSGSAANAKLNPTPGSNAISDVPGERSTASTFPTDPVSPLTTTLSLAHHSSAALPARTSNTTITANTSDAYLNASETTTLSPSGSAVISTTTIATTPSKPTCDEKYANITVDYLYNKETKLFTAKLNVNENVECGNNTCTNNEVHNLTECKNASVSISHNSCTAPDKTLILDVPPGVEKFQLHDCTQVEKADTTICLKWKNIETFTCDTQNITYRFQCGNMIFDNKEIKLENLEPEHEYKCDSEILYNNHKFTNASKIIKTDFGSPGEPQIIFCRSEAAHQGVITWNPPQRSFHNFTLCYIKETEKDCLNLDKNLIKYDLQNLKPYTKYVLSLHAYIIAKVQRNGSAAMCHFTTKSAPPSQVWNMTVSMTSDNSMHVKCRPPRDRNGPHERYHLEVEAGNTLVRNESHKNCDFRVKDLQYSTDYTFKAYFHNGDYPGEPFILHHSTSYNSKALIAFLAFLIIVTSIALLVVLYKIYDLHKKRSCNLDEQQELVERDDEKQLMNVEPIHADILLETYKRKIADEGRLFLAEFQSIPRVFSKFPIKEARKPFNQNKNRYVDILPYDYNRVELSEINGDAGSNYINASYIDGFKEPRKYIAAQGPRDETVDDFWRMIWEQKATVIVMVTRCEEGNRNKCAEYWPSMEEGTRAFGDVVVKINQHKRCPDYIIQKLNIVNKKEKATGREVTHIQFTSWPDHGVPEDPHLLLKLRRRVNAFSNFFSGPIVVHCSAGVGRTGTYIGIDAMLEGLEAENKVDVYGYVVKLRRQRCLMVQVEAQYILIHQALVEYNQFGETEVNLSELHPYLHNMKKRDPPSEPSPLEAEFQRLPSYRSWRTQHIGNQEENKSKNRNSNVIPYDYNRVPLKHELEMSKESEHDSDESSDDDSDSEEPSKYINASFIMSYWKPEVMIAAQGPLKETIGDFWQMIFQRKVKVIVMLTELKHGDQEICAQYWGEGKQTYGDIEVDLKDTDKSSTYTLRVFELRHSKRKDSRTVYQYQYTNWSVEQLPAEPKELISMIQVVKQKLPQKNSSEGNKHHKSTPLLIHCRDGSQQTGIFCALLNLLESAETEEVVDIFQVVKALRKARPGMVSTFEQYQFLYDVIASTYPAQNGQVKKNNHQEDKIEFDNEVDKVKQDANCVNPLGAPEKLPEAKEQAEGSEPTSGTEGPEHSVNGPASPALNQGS

[7] = target: T6, Receptor-type tyrosine-protein phosphatase mu (Homo sapiens, UniProt P28827); assay: Inhibition of PTPmu (unknown origin) using DiFMUP as substrate incubated for 30 mins followed by substrate addition at pH 6.5 by standard phosphatase assay based fluorescence analysis
T6 sequence (P28827 whole entry): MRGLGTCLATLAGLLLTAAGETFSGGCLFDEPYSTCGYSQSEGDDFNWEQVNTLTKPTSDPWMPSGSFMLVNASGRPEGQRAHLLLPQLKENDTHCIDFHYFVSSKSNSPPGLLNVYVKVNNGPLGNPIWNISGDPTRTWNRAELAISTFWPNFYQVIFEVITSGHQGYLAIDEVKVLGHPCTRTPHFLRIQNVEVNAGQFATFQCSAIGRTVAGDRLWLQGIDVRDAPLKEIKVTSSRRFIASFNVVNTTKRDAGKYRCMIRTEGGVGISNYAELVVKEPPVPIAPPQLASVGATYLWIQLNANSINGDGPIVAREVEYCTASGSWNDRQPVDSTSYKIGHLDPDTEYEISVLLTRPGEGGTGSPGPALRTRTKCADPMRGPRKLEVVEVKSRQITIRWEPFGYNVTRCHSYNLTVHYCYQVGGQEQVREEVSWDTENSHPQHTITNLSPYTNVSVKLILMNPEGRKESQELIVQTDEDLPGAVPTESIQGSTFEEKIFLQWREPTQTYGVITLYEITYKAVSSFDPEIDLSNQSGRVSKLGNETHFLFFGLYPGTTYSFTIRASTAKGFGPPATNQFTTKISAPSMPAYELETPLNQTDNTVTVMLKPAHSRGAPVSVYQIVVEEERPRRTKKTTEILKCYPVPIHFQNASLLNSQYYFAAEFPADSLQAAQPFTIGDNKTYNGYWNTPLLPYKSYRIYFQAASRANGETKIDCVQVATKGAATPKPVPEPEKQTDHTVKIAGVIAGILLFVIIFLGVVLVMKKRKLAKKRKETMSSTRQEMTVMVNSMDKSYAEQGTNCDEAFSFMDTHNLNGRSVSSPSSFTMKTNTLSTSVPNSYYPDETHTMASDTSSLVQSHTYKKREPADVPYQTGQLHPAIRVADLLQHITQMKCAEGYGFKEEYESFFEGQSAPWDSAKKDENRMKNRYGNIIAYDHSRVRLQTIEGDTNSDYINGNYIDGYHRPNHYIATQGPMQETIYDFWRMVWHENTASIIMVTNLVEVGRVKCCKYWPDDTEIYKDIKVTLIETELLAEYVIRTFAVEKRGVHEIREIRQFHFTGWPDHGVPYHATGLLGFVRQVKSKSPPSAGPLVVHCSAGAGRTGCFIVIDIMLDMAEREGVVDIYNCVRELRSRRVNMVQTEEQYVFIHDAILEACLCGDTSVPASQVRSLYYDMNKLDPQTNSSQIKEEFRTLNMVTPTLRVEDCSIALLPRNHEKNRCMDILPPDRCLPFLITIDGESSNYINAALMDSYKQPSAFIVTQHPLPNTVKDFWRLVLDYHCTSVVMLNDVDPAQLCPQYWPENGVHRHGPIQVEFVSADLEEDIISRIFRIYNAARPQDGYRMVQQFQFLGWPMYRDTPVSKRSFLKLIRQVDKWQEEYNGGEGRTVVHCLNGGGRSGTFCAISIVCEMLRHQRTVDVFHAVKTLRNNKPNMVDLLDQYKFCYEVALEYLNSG

[8] = target: T7, Dual specificity protein phosphatase 3 (Homo sapiens, UniProt P51452); assay: Inhibition of VHR (unknown origin) using DiFMUP as substrate incubated for 30 mins followed by substrate addition at pH 6.5 by standard phosphatase assay based fluorescence analysis
Target sequence in this assay (P51452 whole entry): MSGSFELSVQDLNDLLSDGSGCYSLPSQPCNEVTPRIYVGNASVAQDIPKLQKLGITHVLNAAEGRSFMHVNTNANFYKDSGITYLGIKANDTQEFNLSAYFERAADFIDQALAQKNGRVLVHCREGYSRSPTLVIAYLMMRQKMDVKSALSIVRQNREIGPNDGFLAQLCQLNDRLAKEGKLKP

[9] = target: T7, Dual specificity protein phosphatase 3; assay: Inhibition of VHR (unknown origin) using DiFMUP as substrate at 100 uM incubated for 30 mins followed by substrate addition at pH 6.5 by standard phosphatase assay based fluorescence analysis
Target sequence in this assay (P51452 whole entry, looked up): as the sequence (P51452 whole entry) above

[10] = target: T6, Receptor-type tyrosine-protein phosphatase mu; assay: Inhibition of PTPmu (unknown origin) using DiFMUP as substrate at 100 uM incubated for 30 mins followed by substrate addition at pH 6.5 by standard phosphatase assay based fluorescence analysis
[11] = target: T8, Tyrosine-protein phosphatase non-receptor type 7 (Homo sapiens) (UniProt P35236); assay: Inhibition of HePTP (unknown origin) using DiFMUP as substrate at 100 uM incubated for 30 mins followed by substrate addition at pH 6.5 by standard phosphatase assay based fluorescence analysis
T8 sequence (whole entry): T2 sequence (P35236 whole entry)

[12] = target: Receptor-type tyrosine-protein phosphatase F (Homo sapiens) (UniProt P10586); assay: Inhibition of LAR (unknown origin) using DiFMUP as substrate at 100 uM incubated for 30 mins followed by substrate addition at pH 6.5 by standard phosphatase assay based fluorescence analysis
Sequence of Receptor-type tyrosine-protein phosphatase F (Homo sapiens) (P10586 whole entry): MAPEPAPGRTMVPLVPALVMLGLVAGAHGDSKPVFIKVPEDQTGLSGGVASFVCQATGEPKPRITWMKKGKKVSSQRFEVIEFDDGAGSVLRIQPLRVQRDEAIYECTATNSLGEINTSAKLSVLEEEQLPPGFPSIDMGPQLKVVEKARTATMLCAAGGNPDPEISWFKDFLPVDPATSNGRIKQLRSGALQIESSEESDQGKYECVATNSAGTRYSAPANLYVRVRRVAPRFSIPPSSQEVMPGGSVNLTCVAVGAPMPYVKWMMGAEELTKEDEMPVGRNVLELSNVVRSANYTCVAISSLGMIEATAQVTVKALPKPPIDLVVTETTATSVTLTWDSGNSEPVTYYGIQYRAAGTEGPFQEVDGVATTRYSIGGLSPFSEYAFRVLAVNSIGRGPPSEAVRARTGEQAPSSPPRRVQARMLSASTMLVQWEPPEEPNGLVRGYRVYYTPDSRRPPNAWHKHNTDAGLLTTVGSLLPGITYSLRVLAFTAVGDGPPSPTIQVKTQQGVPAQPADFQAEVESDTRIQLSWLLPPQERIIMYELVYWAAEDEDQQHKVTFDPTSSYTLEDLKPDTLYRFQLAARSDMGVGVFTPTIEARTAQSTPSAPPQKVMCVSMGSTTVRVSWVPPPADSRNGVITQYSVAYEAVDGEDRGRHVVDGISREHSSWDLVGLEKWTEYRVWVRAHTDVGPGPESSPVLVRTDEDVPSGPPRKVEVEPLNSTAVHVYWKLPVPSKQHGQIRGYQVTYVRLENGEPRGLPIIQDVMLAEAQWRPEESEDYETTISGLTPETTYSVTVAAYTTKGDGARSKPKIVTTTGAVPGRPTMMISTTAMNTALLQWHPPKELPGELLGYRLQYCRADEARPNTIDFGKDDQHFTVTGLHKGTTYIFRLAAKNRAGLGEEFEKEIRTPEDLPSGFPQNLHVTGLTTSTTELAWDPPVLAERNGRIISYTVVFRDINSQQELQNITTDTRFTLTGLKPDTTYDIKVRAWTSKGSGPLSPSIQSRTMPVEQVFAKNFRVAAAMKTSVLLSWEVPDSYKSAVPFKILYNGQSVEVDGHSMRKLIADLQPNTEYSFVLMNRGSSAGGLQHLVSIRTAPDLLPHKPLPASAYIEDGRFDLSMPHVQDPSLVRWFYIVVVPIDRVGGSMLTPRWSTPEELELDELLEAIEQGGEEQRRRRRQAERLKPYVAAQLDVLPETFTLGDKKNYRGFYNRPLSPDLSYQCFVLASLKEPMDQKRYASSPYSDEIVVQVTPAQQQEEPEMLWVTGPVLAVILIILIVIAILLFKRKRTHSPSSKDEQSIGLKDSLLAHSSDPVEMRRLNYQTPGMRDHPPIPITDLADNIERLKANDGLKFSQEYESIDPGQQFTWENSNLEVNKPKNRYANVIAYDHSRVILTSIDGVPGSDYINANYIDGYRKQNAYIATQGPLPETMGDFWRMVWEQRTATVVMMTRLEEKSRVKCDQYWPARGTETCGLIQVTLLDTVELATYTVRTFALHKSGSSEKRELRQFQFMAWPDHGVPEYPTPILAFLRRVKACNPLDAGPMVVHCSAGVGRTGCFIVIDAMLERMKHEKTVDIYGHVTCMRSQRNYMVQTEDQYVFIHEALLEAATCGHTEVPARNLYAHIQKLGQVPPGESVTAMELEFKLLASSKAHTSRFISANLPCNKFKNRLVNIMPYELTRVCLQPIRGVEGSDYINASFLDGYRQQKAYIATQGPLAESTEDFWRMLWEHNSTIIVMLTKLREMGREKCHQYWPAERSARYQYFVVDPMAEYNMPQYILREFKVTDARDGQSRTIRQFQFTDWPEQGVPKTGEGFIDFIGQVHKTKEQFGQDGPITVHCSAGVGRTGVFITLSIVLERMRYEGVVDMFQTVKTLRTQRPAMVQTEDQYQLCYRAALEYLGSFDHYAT

[13] = target: T9, Tyrosine-protein phosphatase non-receptor type 11 (Homo sapiens, UniProt Q06124); assay: Inhibition of SHP2 (unknown origin) using DiFMUP as substrate incubated for 30 mins followed by substrate addition at pH 6.5 by standard phosphatase assay based fluorescence analysis
T9 sequence (Q06124 whole entry): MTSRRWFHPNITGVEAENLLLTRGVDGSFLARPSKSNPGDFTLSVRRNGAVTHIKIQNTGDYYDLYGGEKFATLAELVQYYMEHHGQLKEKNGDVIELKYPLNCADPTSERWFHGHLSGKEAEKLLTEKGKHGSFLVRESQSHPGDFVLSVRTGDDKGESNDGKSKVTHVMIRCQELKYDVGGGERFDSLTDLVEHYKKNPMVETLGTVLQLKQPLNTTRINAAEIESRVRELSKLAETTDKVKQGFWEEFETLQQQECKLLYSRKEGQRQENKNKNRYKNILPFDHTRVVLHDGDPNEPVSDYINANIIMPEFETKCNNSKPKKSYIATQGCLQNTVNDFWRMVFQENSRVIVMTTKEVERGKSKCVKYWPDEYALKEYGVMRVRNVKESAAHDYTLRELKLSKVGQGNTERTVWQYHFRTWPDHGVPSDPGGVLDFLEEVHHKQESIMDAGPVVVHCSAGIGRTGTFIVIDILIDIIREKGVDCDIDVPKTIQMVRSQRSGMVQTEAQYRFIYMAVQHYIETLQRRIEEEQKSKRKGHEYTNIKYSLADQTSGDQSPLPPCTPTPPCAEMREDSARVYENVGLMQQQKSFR

[14] = target: T10, Receptor-type tyrosine-protein phosphatase C (Homo sapiens, UniProt P08575); assay: Inhibition of CD45 (unknown origin) using DiFMUP as substrate incubated for 30 mins followed by substrate addition at pH 6.5 by standard phosphatase assay based fluorescence analysis
T10 sequence (P08575 whole entry): T5 sequence (whole entry)

[15] = target: T11, Tyrosine-protein phosphatase non-receptor type 11 (Homo sapiens) (UniProt Q06124); assay: Inhibition of SHP2 (unknown origin) using DiFMUP as substrate at 100 uM incubated for 30 mins followed by substrate addition at pH 6.5 by standard phosphatase assay based fluorescence analysis
T11 sequence (whole entry): T9 sequence (Q06124 whole entry)

[16] = target: Low molecular weight phosphotyrosine protein phosphatase (Homo sapiens) (UniProt P24666); assay: Inhibition of LMWPTP (unknown origin) using DiFMUP as substrate at 100 uM incubated for 30 mins followed by substrate addition at pH 6.5 by standard phosphatase assay based fluorescence analysis
Sequence of Low molecular weight phosphotyrosine protein phosphatase (Homo sapiens) (P24666 whole entry, looked up): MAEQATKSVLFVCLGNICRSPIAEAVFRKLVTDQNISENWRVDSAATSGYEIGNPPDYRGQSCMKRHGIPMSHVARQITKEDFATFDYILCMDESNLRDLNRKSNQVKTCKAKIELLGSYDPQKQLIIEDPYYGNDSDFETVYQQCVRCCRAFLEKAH

[17] = target: Receptor-type tyrosine-protein phosphatase F (Homo sapiens) (UniProt P10586); assay: Time-dependent inhibition of LAR (unknown origin) using DiFMUP as substrate at 50 uM incubated for 15 to 120 mins followed by substrate addition at pH 6.5 by standard phosphatase assay based fluorescence analysis; details: TDE = time-dependent effect
[18] = target: Receptor-type tyrosine-protein phosphatase F (Homo sapiens) (UniProt P10586); assay: Inhibition of LAR (unknown origin) using DiFMUP as substrate incubated for 30 mins followed by substrate addition at pH 6.5 by standard phosphatase assay based fluorescence analysis
[19] = target: Receptor-type tyrosine-protein phosphatase F (Homo sapiens) (UniProt P10586); assay: Time-dependent inhibition of LAR (unknown origin) using DiFMUP as substrate at 1 uM incubated for 15 to 120 mins followed by substrate addition at pH 6.5 by standard phosphatase assay based fluorescence analysis; details: TDE = time-dependent effect
[20] = target: Receptor-type tyrosine-protein phosphatase F (Homo sapiens) (UniProt P10586); assay: Inhibition of LAR (unknown origin) assessed as time required for half of the protein to be covalently modified using DiFMUP as substrate incubated for 15 to 120 mins followed by substrate addition at pH 6.5 by standard phosphatase assay based fluorescence analysis
[21] = target: T6, Receptor-type tyrosine-protein phosphatase mu; assay: Time-dependent inhibition of PTPmu (unknown origin) using DiFMUP as substrate at 10 uM incubated for 5 to 120 mins followed by substrate addition at pH 6.5 by standard phosphatase assay based fluorescence analysis; details: TDE = time-dependent effect
[22] = target: T5, Receptor-type tyrosine-protein phosphatase C (Homo sapiens); assay: Time dependent inhibition of CD45 (unknown origin) using DiFMUP as substrate at 10 uM incubated for 5 to 120 mins followed by substrate addition at pH 6.5 by standard phosphatase assay based fluorescence analysis; details: TDE = time-dependent effect

T1 sequence (P23469 whole entry): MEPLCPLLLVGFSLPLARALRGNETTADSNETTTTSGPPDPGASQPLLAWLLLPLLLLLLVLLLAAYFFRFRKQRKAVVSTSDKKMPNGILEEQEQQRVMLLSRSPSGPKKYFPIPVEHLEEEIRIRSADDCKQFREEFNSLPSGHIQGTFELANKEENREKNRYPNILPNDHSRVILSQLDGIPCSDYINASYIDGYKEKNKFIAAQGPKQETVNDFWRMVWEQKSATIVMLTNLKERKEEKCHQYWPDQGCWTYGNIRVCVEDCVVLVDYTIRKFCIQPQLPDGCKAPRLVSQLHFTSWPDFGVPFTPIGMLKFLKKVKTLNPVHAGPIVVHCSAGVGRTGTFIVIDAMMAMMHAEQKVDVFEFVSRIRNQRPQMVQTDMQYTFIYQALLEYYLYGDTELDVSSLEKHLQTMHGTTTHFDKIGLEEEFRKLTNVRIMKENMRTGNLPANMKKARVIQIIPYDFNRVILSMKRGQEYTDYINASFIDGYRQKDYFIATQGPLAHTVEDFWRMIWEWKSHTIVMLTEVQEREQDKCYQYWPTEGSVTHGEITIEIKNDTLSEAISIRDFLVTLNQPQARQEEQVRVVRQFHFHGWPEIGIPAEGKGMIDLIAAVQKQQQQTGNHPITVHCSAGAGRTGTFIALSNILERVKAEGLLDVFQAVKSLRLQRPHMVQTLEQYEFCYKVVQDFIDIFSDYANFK

IC50 [1] | inhibition [2] | IC50 [3] | inhibition [4] | IC50 [5] | inhibition [6] | IC50 [7] | IC50 [8] | inhibition [9] | inhibition [10] | inhibition [11] | inhibition [12] | IC50 [13] | IC50 [14] | inhibition [15] | inhibition [16] | SMILES | other results
> 100 µM | inactive | > 100 µM | inactive | > 100 µM | inactive | > 100 µM | > 100 µM | inactive | inactive | inactive | Active | > 100 µM | > 100 µM | inactive | inactive | COc1c(C=O)c2c(c3c1CC(C)(C)C3)C(=O)OC(O)C2 (configuration not stated) | inhibition [17]: Tde
> 100 µM | inactive | > 100 µM | inactive | > 100 µM | Active | 16 µM | > 100 µM | inactive | Active | inactive | Active | 29 µM | 10 µM | Active | inactive | CC1(C)Cc2c(O)c(C=O)c3c(c2C1)C(=O)OC(O)C3 (configuration not stated) [ILLUDALIC ACID] | inhibition [18]: Dose-dependent effect; inhibition [19]: Tde; T1/2 [20]: 30 s; inhibition [21]: Tde; inhibition [22]: Tde
 | inactive |  | inactive |  | inactive |  |  | inactive | inactive | inactive | inactive |  |  | inactive | inactive | COc1ccc2c(c1C=O)CC(O)OC2=O (configuration not stated) | 
